Results from PubChem BioAssay (NCI).
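Following 48 hours of exposure in 96-well plates, responses at five concentrations were used to interpolate endpoints linearly. Abbreviation: GI50, concentration required for 50% inhibition of growth. TGI: concentration producing complete growth inhibition.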

How the values were obtained:
Assay in all cases: NCI-60 cell line screen, 48 h
786-0 renal = test system: 786-0 renal
A498 renal = test system: A498 renal
A549 NSCLC = test system: A549 NSCLC
ACHN renal = test system: ACHN renal
BT-549 breast = test system: BT-549 breast
CAKI-1 renal = test system: CAKI-1 renal
CCRF-CEM leukemia = test system: CCRF-CEM leukemia
COLO 205 colon = test system: COLO 205 colon
DU-145 prostate = test system: DU-145 prostate
EKVX NSCLC = test system: EKVX NSCLC
HCT-116 colon = test system: HCT-116 colon
HCT-15 colon = test system: HCT-15 colon
HL-60(TB) leukemia = test system: HL-60(TB) leukemia
HOP-62 NSCLC = test system: HOP-62 NSCLC
HOP-92 NSCLC = test system: HOP-92 NSCLC
HS 578T breast = test system: HS 578T breast
HT29 colon = test system: HT29 colon
IGROV1 ovarian = test system: IGROV1 ovarian
K-562 leukemia = test system: K-562 leukemia
KM12 colon = test system: KM12 colon
LOX IMVI melanoma = test system: LOX IMVI melanoma
M14 melanoma = test system: M14 melanoma
MALME-3M melanoma = test system: MALME-3M melanoma
MCF7 breast = test system: MCF7 breast
MDA-MB-231 breast = test system: MDA-MB-231 breast
MDA-MB-435 = test system: MDA-MB-435
MOLT-4 leukemia = test system: MOLT-4 leukemia
NCI-H226 lung = test system: NCI-H226 lung
NCI-H23 lung = test system: NCI-H23 lung
NCI-H460 lung = test system: NCI-H460 lung
NCI-H522 lung = test system: NCI-H522 lung
NCI/ADR-RES ovarian = test system: NCI/ADR-RES ovarian
OVCAR-3 ovarian = test system: OVCAR-3 ovarian
OVCAR-4 ovarian = test system: OVCAR-4 ovarian
OVCAR-5 ovarian = test system: OVCAR-5 ovarian
OVCAR-8 ovarian = test system: OVCAR-8 ovarian
PC-3 prostate = test system: PC-3 prostate
RPMI-8226 leukemia = test system: RPMI-8226 leukemia
RXF 393 renal = test system: RXF 393 renal
SF-268 CNS = test system: SF-268 CNS
SF-295 CNS = test system: SF-295 CNS
SF-539 CNS = test system: SF-539 CNS
SK-MEL-2 melanoma = test system: SK-MEL-2 melanoma
SK-MEL-28 melanoma = test system: SK-MEL-28 melanoma
SK-MEL-5 melanoma = test system: SK-MEL-5 melanoma
SK-OV-3 ovarian = test system: SK-OV-3 ovarian
SN12C renal = test system: SN12C renal
SNB-19 CNS = test system: SNB-19 CNS
SNB-75 CNS = test system: SNB-75 CNS
SR leukemia = test system: SR leukemia
SW-620 colon = test system: SW-620 colon
T-47D breast = test system: T-47D breast
TK-10 renal = test system: TK-10 renal
U251 CNS = test system: U251 CNS
UACC-257 melanoma = test system: UACC-257 melanoma
UACC-62 melanoma = test system: UACC-62 melanoma
UO-31 renal = test system: UO-31 renal

COc1cc2c(cc1OCCCCCOc1cc(-c3ccc(F)cc3)nc(C)n1)N=C[C@@H]1CCCN1C2=O
GI50 (786-0 renal): > 44.9 µM
TGI (786-0 renal): > 67.5 µM
GI50 (A498 renal): > 100 µM
TGI (A498 renal): > 100 µM
GI50 (A549 NSCLC): > 41.2 µM
TGI (A549 NSCLC): > 66.3 µM
GI50 (ACHN renal): > 37.6 µM
TGI (ACHN renal): > 68.6 µM
GI50 (BT-549 breast): > 32.8 µM
TGI (BT-549 breast): > 61.1 µM
GI50 (CAKI-1 renal): > 41.7 µM
TGI (CAKI-1 renal): > 66.9 µM
TGI (CCRF-CEM leukemia): > 45.2 µM
GI50 (COLO 205 colon): 4.32 µM
TGI (COLO 205 colon): 7.64 µM
GI50 (DU-145 prostate): > 39.8 µM
TGI (DU-145 prostate): > 87.4 µM
GI50 (EKVX NSCLC): > 50.1 µM
TGI (EKVX NSCLC): > 81 µM
GI50 (HCT-116 colon): > 52.9 µM
TGI (HCT-116 colon): 98.4 µM
GI50 (HCT-15 colon): > 41.9 µM
TGI (HCT-15 colon): > 77.9 µM
GI50 (HL-60(TB) leukemia): > 100 µM
TGI (HL-60(TB) leukemia): > 100 µM
GI50 (HOP-62 NSCLC): > 50.2 µM
TGI (HOP-62 NSCLC): > 79.4 µM
GI50 (HOP-92 NSCLC): 0.376 µM
TGI (HOP-92 NSCLC): 6.7 µM
GI50 (HS 578T breast): > 47.5 µM
TGI (HS 578T breast): > 81.2 µM
GI50 (HT29 colon): > 45.1 µM
TGI (HT29 colon): > 100 µM
GI50 (IGROV1 ovarian): > 27.8 µM
TGI (IGROV1 ovarian): > 49.6 µM
GI50 (K-562 leukemia): > 21.6 µM
TGI (K-562 leukemia): > 66.4 µM
GI50 (KM12 colon): > 48.3 µM
TGI (KM12 colon): > 73.6 µM
GI50 (LOX IMVI melanoma): 11.1 µM
TGI (LOX IMVI melanoma): 31 µM
GI50 (M14 melanoma): > 45.5 µM
TGI (M14 melanoma): > 65.7 µM
GI50 (MALME-3M melanoma): > 48.3 µM
TGI (MALME-3M melanoma): > 68.7 µM
GI50 (MCF7 breast): > 23.6 µM
TGI (MCF7 breast): > 48.8 µM
GI50 (MDA-MB-231 breast): > 39.5 µM
TGI (MDA-MB-231 breast): > 65.5 µM
GI50 (MDA-MB-435): > 45.3 µM
TGI (MDA-MB-435): > 67.5 µM
TGI (MOLT-4 leukemia): > 45 µM
GI50 (NCI-H226 lung): > 100 µM
TGI (NCI-H226 lung): > 100 µM
GI50 (NCI-H23 lung): > 100 µM
TGI (NCI-H23 lung): > 100 µM
GI50 (NCI-H460 lung): > 36 µM
TGI (NCI-H460 lung): > 58.5 µM
GI50 (NCI-H522 lung): > 20.5 µM
TGI (NCI-H522 lung): > 42.3 µM
GI50 (NCI/ADR-RES ovarian): > 100 µM
TGI (NCI/ADR-RES ovarian): > 100 µM
GI50 (OVCAR-3 ovarian): > 38.2 µM
TGI (OVCAR-3 ovarian): > 58.3 µM
GI50 (OVCAR-4 ovarian): > 40.6 µM
TGI (OVCAR-4 ovarian): > 79.7 µM
GI50 (OVCAR-5 ovarian): > 100 µM
TGI (OVCAR-5 ovarian): > 100 µM
GI50 (OVCAR-8 ovarian): > 37.3 µM
TGI (OVCAR-8 ovarian): > 54.7 µM
GI50 (PC-3 prostate): > 33.3 µM
TGI (PC-3 prostate): > 60.5 µM
TGI (RPMI-8226 leukemia): > 24 µM
GI50 (RXF 393 renal): > 32.9 µM
TGI (RXF 393 renal): > 54.3 µM
GI50 (SF-268 CNS): > 32.5 µM
TGI (SF-268 CNS): > 65.2 µM
GI50 (SF-295 CNS): > 50.9 µM
TGI (SF-295 CNS): > 76.1 µM
GI50 (SF-539 CNS): > 100 µM
TGI (SF-539 CNS): > 100 µM
GI50 (SK-MEL-2 melanoma): > 48.3 µM
TGI (SK-MEL-2 melanoma): > 68.7 µM
GI50 (SK-MEL-28 melanoma): > 46.2 µM
TGI (SK-MEL-28 melanoma): > 79.8 µM
TGI (SK-MEL-5 melanoma): > 26.2 µM
GI50 (SK-OV-3 ovarian): > 51.6 µM
TGI (SK-OV-3 ovarian): > 78.8 µM
GI50 (SN12C renal): > 44.2 µM
TGI (SN12C renal): > 71.2 µM
GI50 (SNB-19 CNS): > 46.2 µM
TGI (SNB-19 CNS): > 100 µM
GI50 (SNB-75 CNS): > 100 µM
TGI (SNB-75 CNS): > 100 µM
TGI (SR leukemia): > 57.9 µM
GI50 (SW-620 colon): > 32.1 µM
TGI (SW-620 colon): > 87.1 µM
GI50 (T-47D breast): 6.27 µM
TGI (T-47D breast): 59.6 µM
GI50 (TK-10 renal): > 49.9 µM
TGI (TK-10 renal): > 75.3 µM
GI50 (U251 CNS): > 34.8 µM
TGI (U251 CNS): > 86.7 µM
GI50 (UACC-257 melanoma): > 100 µM
TGI (UACC-257 melanoma): > 100 µM
GI50 (UACC-62 melanoma): > 38.1 µM
TGI (UACC-62 melanoma): > 56.2 µM
GI50 (UO-31 renal): > 28.3 µM
TGI (UO-31 renal): > 59 µM
